Assay results as given in patent US6849416B2, “Monoclonal antibody” (priority 2001, dated 2005).
Where a SMILES comes first, the peptide text is derived from it. [ ]: non-standard residue; d: D form. The star is where a group is joined. Nle = CCCC[C@H](N)C(=O)O; Cbz = O=C(OCc1ccccc1)*

Legend:
[1] = tested on: human APP751Sw transgenic H4 neuroglioma cell line (released Aβ peptides); assay: Treatment of APP751Sw transgenic H4 neuroglioma cells with protease inhibitors, Aβ peptides released into supernatant; format: cell-based; details: for Aβ1-40, Aβ1-42, Aβ1-37/38/39 and Aβ2-42 released into cell culture supernatant: versus DMSO control
Protocol: FIG. 27: two Aβ SDS-PAGE/immunoblots 2 which show a treatment of a human 751APPSw trangenic H4 neuroglioma cell line with various protease inhibitors (23a) and a dose-dependent effect of calpain inhibitor 1 (23b). The released Aβ peptides were quantified in 4 μl of SDS/thermally denatured cell culture supernatants in each case (cf. FIGS. 23a,b). For comparison, the sAPPα concentration in the cell culture supernatants was determined.
In panel a: (1) is DMSO control; (2) is 50 μM calpain inhibitor 1; (3) is 100 μM calpain inhibitor 3; (4) is 5 μM MG132; (5) is 25 μM calpeptin; (a-d) is mix of synthetic Aβ peptides.
The released Aβ peptides were quantified in 4 μl of SDS/thermally denatured cell culture supernatants in each case. The dose-dependent effect of calpain inhibitor 1 on the Aβ peptide concentration in the supernatant was investigated, comparing with the DMSO control.
The released Aβ peptides were quantified in 4 μl of SDS/thermally denatured cell culture supernatants in each case. The dose-dependent effect of calpain inhibitor 1 on the proportion of an Aβ peptide species as a percentage of the total Aβ peptide concentration was investigated, comparing with the DMSO control.
If the samples are in liquid form (e.g. cell culture supernatants, cell homogenates) and if the Aβ peptide concentration is sufficiently high it is possible to take up one volume unit of sample with one volume unit of the double concentrated SDS-SB-2 (table 3).
A comparative investigation was carried out on the Aβ peptide pattern in neuroglioma cells (H4) which have been transfected with humanAPP751Sw. […] Aβ2-42 can also be indentified. After treatment with inhibitors of β/γ-secretases (calpain inhibitor I&II, calpeptin, MG132, leupeptin), besides Aβ1-40 and Aβ1-42 there is also a reduction in the C-terminally truncated Aβ peptides 1-37/38/39 and the N-terminally truncated Aβ2-42 (FIGS. 28a,b).

[2] = Aβ IPG 2D-PAGE of synthetic Aβ peptides (isoelectric point); format: physicochemical; details: IPG pH 4-7
Protocol: The samples are taken up in IPG-SB (table 5a). Dry substance and Dynabeads magnetically immobilized by means of MSP (see below) are taken up directly with the IPG-SB immediately before IEF and incubated in an ultrasonic bath at 37° C. for 10 min. Taking up of liquid biological samples: after removal of the mixed bed ion exchanger (Serdolit MB-1), the IPB-SB is divided into aliquots (e.g. 100 μl) in Eppendorf sample vessels and concentrated to the dry substance at room temperature using a SpeedVac. The IPG-SB introduced as dry substance is taken up with sample with the ratio 1:1 by volume (e.g. 100 μl) and, after a vortex step (1 min.), incubated in an ultrasonic bath at 37° C. for 10 min.
The IEF using commercial IPG “[…]” took place in accordance with the manufacturer's protocol (Amersham Pharmacia Biotech/brief instructions 71-5009-57, edition AA, 99-04). IPG “[…]” (4-7, linear pH gradient, length 7 cm) were rehydrogenated to a gel thickness of 0.5 mm using the rehydrogenation solution from table 5a at room temperature overnight. The sample loading device (“sample cups”) is placed on the basic side of the IPG strips, at about pH 6.5 (cathodic loading) and 30 μl of sample is loaded. The IPG-IEF takes place for 30 min/300V, 30 min/800V, 30 min./1400V and 5 h/2000V ([…]).
The IPG-IEF is followed by equilibration of the “[…]” for 2×10 min. (table 5b). The first equilibration solution contains DTT (50 mg/5 ml), the second solution iodoacetamide (240 mg/5 ml) for neutralization of excess DTT, which otherwise leads to color artefacts on silver staining of the gels. The second equilibration step is unnecessary for the Western immunoblot. The equilibrated IPG “[…]” are fixed on the stacking gel of the Aβ SDS-PAGE using agarose solution (table 5c). A sample well for loading synthetic Aβ peptides or Mr marker proteins for comparison is made in the hot agarose using a Teflon tooth. The electrophoresis takesplace in accordance with 3.1.2.

[3] = Cryoprecipitation of synthetic peptide dissolved in water; format: physicochemical; details: dissolved with comparable concentration in water, freezing
Text: This makes it probable that the reduction caused by cryoprecipitation in Aβ1-42 in human CSF derives predominantly from the aggregate-bound proportion of the peptide. In the case of comparatively hydrophobic aggregates—for example lipoprotein-containing complexes—a loss through cryoprecipitation would not be surprising. In this connection, it is shown hereinafter (4.2.4) that ε4-positive patients in the NDC-3CP group show a particularly high rate of CP-related reduction in Aβ1-42 and have CSF levels which are approximately as low as ε4-positive AD-3CP patients.

Compound | Aβ1-40, Aβ1-42, Aβ1-37/38/39 and Aβ2-42 released into cell culture supernatant [1] | isoelectric point [2] | other results
CC(C)C[C@@H](C=O)NC(=O)[C@H](CC(C)C)NC(=O)[C@H](CC(C)C)NC(=O)OCc1ccccc1 [MG132] (Cbz-Leu-Leu-Leu-aldehyde) | reduction | – | –
CCCC[C@@H](C=O)NC(=O)[C@H](CC(C)C)NC(=O)[C@H](CC(C)C)NC(C)=O [calpain inhibitor 1] (Ac-Leu-Leu-[Nle]-aldehyde) | dose-dependent reduction | – | Aβ1-42 concentration at low concentration of the protease inhibitor ([1]; low inhibitor concentration): initial (paradoxical) increase; Aβ2-42 concentration in relation to the increase in Aβ1-42 ([1]; low inhibitor concentration): did not correlate with an increase; Aβ1-40, Aβ1-42, Aβ1-37/38/39 and Aβ2-42 released into cell culture supernatant ([1]; listed as calpain inhibitor I): reduction
CSCC[C@@H](C=O)NC(=O)[C@H](CC(C)C)NC(=O)[C@H](CC(C)C)NC(C)=O [calpain inhibitor II] (Ac-Leu-Leu-Met-aldehyde) | reduction | – | –
CCCC[C@@H](C=O)NC(=O)[C@H](CC(C)C)NC(=O)OCc1ccccc1 [calpeptin] | reduction | – | –
CC(=O)N[C@@H](CC(C)C)C(=O)N[C@@H](CC(C)C)C(=O)N[C@H](C=O)CCCNC(=N)N [leupeptin] | reduction | – | –
Aβ1-42: synthetic β-amyloid peptide 1-42 (Bachem) | – | 5.37 | cryoprecipitation compared with Aβ1-42 in human CSF [3]: distinctly less cryoprecipitation
Aβ2-40: synthetic β-amyloid peptide 2-40, lacking N-terminal aspartate | – | 6.37 | –
Aβ3-40: synthetic β-amyloid peptide 3-40 | – | 6.37 | –
